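GI50 = concentration required for 50% inhibition of growth. The concentration for full growth arrest is given as TGI.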
Tests used:
Test in all cases: growth of human tumour cells (NCI), 384-well format
RXF 393 renal = tested on: RXF 393 renal
KM12 colon = tested on: KM12 colon
HOP-92 NSCLC = tested on: HOP-92 NSCLC
MDA-MB-435 melanoma = tested on: MDA-MB-435 melanoma
SW-620 colon = tested on: SW-620 colon
SNB-75 CNS = tested on: SNB-75 CNS
IGROV1 ovarian = tested on: IGROV1 ovarian
CAKI-1 renal = tested on: CAKI-1 renal
K-562 leukemia = tested on: K-562 leukemia
NCI-H23 lung = tested on: NCI-H23 lung
UO-31 renal = tested on: UO-31 renal
UACC-257 melanoma = tested on: UACC-257 melanoma
MOLT-4 leukemia = tested on: MOLT-4 leukemia
A498 renal = tested on: A498 renal
PC-3 prostate = tested on: PC-3 prostate
SNB-19 CNS = tested on: SNB-19 CNS
DU-145 prostate = tested on: DU-145 prostate
ACHN renal = tested on: ACHN renal
SR leukemia = tested on: SR leukemia
HCT-15 colon = tested on: HCT-15 colon
NCI-H322M lung = tested on: NCI-H322M lung
M14 melanoma = tested on: M14 melanoma
HCC-2998 colon = tested on: HCC-2998 colon
CCRF-CEM leukemia = tested on: CCRF-CEM leukemia
786-0 renal = tested on: 786-0 renal
A549 NSCLC = tested on: A549 NSCLC
EKVX NSCLC = tested on: EKVX NSCLC
OVCAR-5 ovarian = tested on: OVCAR-5 ovarian
MDA-MB-468 breast = tested on: MDA-MB-468 breast
MCF7 breast = tested on: MCF7 breast
HOP-62 NSCLC = tested on: HOP-62 NSCLC
NCI-H226 lung = tested on: NCI-H226 lung
SN12C renal = tested on: SN12C renal
OVCAR-3 ovarian = tested on: OVCAR-3 ovarian
SK-MEL-5 melanoma = tested on: SK-MEL-5 melanoma
SF-295 CNS = tested on: SF-295 CNS
SK-MEL-2 melanoma = tested on: SK-MEL-2 melanoma
NCI/ADR-RES ovarian = tested on: NCI/ADR-RES ovarian
NCI-H522 lung = tested on: NCI-H522 lung
SK-OV-3 ovarian = tested on: SK-OV-3 ovarian
OVCAR-4 ovarian = tested on: OVCAR-4 ovarian
SF-539 CNS = tested on: SF-539 CNS
HCT-116 colon = tested on: HCT-116 colon
LOX IMVI melanoma = tested on: LOX IMVI melanoma
MALME-3M melanoma = tested on: MALME-3M melanoma
SF-268 CNS = tested on: SF-268 CNS
HL-60(TB) leukemia = tested on: HL-60(TB) leukemia
NCI-H460 NSCLC = tested on: NCI-H460 NSCLC
UACC-62 melanoma = tested on: UACC-62 melanoma
HS 578T breast = tested on: HS 578T breast
BT-549 breast = tested on: BT-549 breast
TK-10 renal = tested on: TK-10 renal
MDA-MB-231 breast = tested on: MDA-MB-231 breast
HT29 colon = tested on: HT29 colon
T-47D breast = tested on: T-47D breast
RPMI-8226 leukemia = tested on: RPMI-8226 leukemia
U251 glioblastoma = tested on: U251 glioblastoma
SK-MEL-28 melanoma = tested on: SK-MEL-28 melanoma

`CC(C)C[C@H](NC(=O)CNC(=O)c1cc(Cl)ccc1Cl)B(O)O` gave a GI50 (RXF 393 renal) of 18 nM, a TGI (RXF 393 renal) of 33 nM and a GI50 (KM12 colon) of 50.7 nM. It also gave a TGI (KM12 colon) of 165 nM, a GI50 (HOP-92 NSCLC) of 27.5 nM and a TGI (HOP-92 NSCLC) of 81.7 nM. The GI50 (MDA-MB-435 melanoma) was 16 nM, the TGI (MDA-MB-435 melanoma) was 30.2 nM and the GI50 (SW-620 colon) was 17.7 nM. For the same molecule, the TGI (SW-620 colon) was 34 nM, the GI50 (SNB-75 CNS) was 111 nM and the TGI (SNB-75 CNS) was 299 nM. It also gave a GI50 (IGROV1 ovarian) of 80.2 nM, a TGI (IGROV1 ovarian) of 590 nM and a GI50 (CAKI-1 renal) of 31.2 nM. It also gave a TGI (CAKI-1 renal) of 155 nM, a GI50 (K-562 leukemia) of 33.8 nM and a TGI (K-562 leukemia) of 126 nM. For the same molecule, the GI50 (NCI-H23 lung) was 22.7 nM, the TGI (NCI-H23 lung) was 65.5 nM and the GI50 (UO-31 renal) was 26.3 nM. It also gave a TGI (UO-31 renal) of 66.1 nM, a GI50 (UACC-257 melanoma) of 20 nM and a TGI (UACC-257 melanoma) of 36.7 nM. The GI50 (MOLT-4 leukemia) was < 10 nM, the TGI (MOLT-4 leukemia) was 11.4 nM and the GI50 (A498 renal) was 71.4 nM. The TGI (A498 renal) was 1310 nM, the GI50 (PC-3 prostate) was 90.8 nM and the TGI (PC-3 prostate) was 298 nM. It also gave a GI50 (SNB-19 CNS) of 84.2 nM, a TGI (SNB-19 CNS) of 421 nM and a GI50 (DU-145 prostate) of 46.7 nM. It also gave a TGI (DU-145 prostate) of 457 nM, a GI50 (ACHN renal) of 20.8 nM and a TGI (ACHN renal) of 71.2 nM. It also gave a GI50 (SR leukemia) of 11.1 nM, a TGI (SR leukemia) of 23.4 nM and a GI50 (HCT-15 colon) of 29.2 nM. For the same molecule, the TGI (HCT-15 colon) was 115 nM, the GI50 (NCI-H322M lung) was 572 nM and the TGI (NCI-H322M lung) was 6500 nM. It also gave a GI50 (M14 melanoma) of 17.1 nM, a TGI (M14 melanoma) of 32.4 nM and a GI50 (HCC-2998 colon) of 30.6 nM. For the same molecule, the TGI (HCC-2998 colon) was 130 nM, the GI50 (CCRF-CEM leukemia) was < 10 nM and the GI50 ([…]-0 renal) was 37.7 nM. It also gave a TGI (786-0 renal) of 170 nM, a GI50 (A549 NSCLC) of 130 nM and a TGI (A549 NSCLC) of 1680 nM. For the same molecule, the GI50 (EKVX NSCLC) was 83 nM, the TGI (EKVX NSCLC) was 396 nM and the GI50 (OVCAR-5 ovarian) was 66.6 nM. For the same molecule, the TGI (OVCAR-5 ovarian) was 277 nM, the GI50 (MDA-MB-468 breast) was 18.9 nM and the TGI (MDA-MB-468 breast) was 38.7 nM. For the same molecule, the GI50 (MCF7 breast) was 34.7 nM, the TGI (MCF7 breast) was 2660 nM and the GI50 (HOP-62 NSCLC) was 54.7 nM. It also gave a TGI (HOP-62 NSCLC) of 268 nM, a GI50 (NCI-H226 lung) of 11.1 nM and a TGI (NCI-H226 lung) of 23.6 nM. The GI50 (SN12C renal) was 62.2 nM, the TGI (SN12C renal) was 243 nM and the GI50 (OVCAR-3 ovarian) was 14.9 nM. It also gave a TGI (OVCAR-3 ovarian) of 31.4 nM, a GI50 (SK-MEL-5 melanoma) of 19.7 nM and a TGI (SK-MEL-5 melanoma) of 41.7 nM. The GI50 (SF-295 CNS) was 55.5 nM, the TGI (SF-295 CNS) was 236 nM and the GI50 (SK-MEL-2 melanoma) was 33.6 nM. The TGI (SK-MEL-2 melanoma) was 51.3 nM, the GI50 (NCI/ADR-RES ovarian) was 235 nM and the TGI (NCI/ADR-RES ovarian) was 781 nM. For the same molecule, the GI50 (NCI-H522 lung) was 16.5 nM, the TGI (NCI-H522 lung) was 30.9 nM and the GI50 (SK-OV-3 ovarian) was 184 nM. The TGI (SK-OV-3 ovarian) was 1520 nM, the GI50 (OVCAR-4 ovarian) was 82.1 nM and the TGI (OVCAR-4 ovarian) was 219 nM. For the same molecule, the GI50 (SF-539 CNS) was 20.7 nM, the TGI (SF-539 CNS) was 35.2 nM and the GI50 (HCT-116 colon) was 17.5 nM. It also gave a TGI (HCT-116 colon) of 34 nM, a GI50 (LOX IMVI melanoma) of 40.6 nM and a TGI (LOX IMVI melanoma) of 136 nM. For the same molecule, the GI50 (MALME-3M melanoma) was 16.9 nM, the TGI (MALME-3M melanoma) was 35 nM and the GI50 (SF-268 CNS) was 26 nM. For the same molecule, the TGI (SF-268 CNS) was 60.6 nM, the GI50 (HL-60(TB) leukemia) was 10.9 nM and the TGI (HL-60(TB) leukemia) was 23 nM. It also gave a GI50 (NCI-H460 NSCLC) of 61.6 nM, a TGI (NCI-H460 NSCLC) of 263 nM and a GI50 (UACC-62 melanoma) of 27.5 nM. For the same molecule, the TGI (UACC-62 melanoma) was 81.1 nM, the GI50 (HS 578T breast) was 20.9 nM and the TGI (HS 578T breast) was 39.4 nM. The GI50 (BT-549 breast) was 20.6 nM, the TGI (BT-549 breast) was 36.3 nM and the GI50 (TK-10 renal) was 20.8 nM. It also gave a TGI (TK-10 renal) of 54 nM, a GI50 (MDA-MB-231 breast) of 29.3 nM and a TGI (MDA-MB-231 breast) of 66.1 nM. The GI50 (HT29 colon) was 19.8 nM, the TGI (HT29 colon) was 45.2 nM and the GI50 (T-47D breast) was 32.9 nM. For the same molecule, the TGI (T-47D breast) was 62.8 nM, the GI50 (RPMI-8226 leukemia) was < 10 nM and the GI50 (U251 glioblastoma) was 67.6 nM. The TGI (U251 glioblastoma) was 1100 nM, the GI50 (SK-MEL-28 melanoma) was 16.6 nM and the TGI (SK-MEL-28 melanoma) was 32 nM.

— PubChem BioAssay (NCI)
